Each molecule was assayed against T1, FYN (Homo sapiens, UniProt P06241) (assay: Z'-LYTE in vitro kinase assay, FYN kinase inhibition). Conditions: Table 17.
T1 construct: purchased CarnaBioscience
Type: biochemical
Experimental: Assays to determine the kinase inhibitory activity of compounds were performed using an automatic liquid handling device (Microlab STAR Hamilton) and Z′-LYTE™ Kinase Assay Platform (Invitrogen), a Fluorescence Resonance Energy Transfer (FRET)-based assay platform compatible with high-throughput screening (HTS) applications. The assay employs a fluorescence-based, coupled-enzyme format and utilizes the differential sensitivity of phosphorylated and non-phosphorylated peptides to proteolytic cleavage.
Test compounds were evaluated towards active FYN (CarnaBioscience). The enzyme was incubated in a 384 low-volume microplate with a synthetic peptide-substrate, ATP and different inhibitor concentrations, ranging from 10^−10 M up to 10^−5 M final concentration. Samples representing the 0% inhibition (or total enzymatic activity) were in the presence of compound diluent (1% DMSO final) in Reaction Buffer (50 mM Hepes, 10 mM MgCl2, 1 mM EGTA, 0.01% Brij-35, pH 7.5).
A near-Km ATP concentrations for the kinase and an optimal enzyme concentration that phosphorylates 20-40% of the Z′-LYTE™ Tyr 2 Peptide in a one-hour incubation, were selected. All reagents were diluted in reaction buffer and the kinase reaction was carried out in a total volume of 10 μl, for 60 minutes at 25° C. The 0% Phosphorylation (i.e. no ATP) and 100% Phosphorylation (i.e. synthetically phosphorylated peptide supplied) Assay Controls, included in each plate, allowed to calculate the percent phosphorylation achieved in the specific reaction well. The 0% Inhibition and 0% Phosphorylation (i.e. 100% Inhibition) Controls define the dynamic range in the screen. At the end of incubation, a secondary reaction (the Development Reaction) started by adding 5 μl of Development Reagent, containing a site-specific protease that recognizes and cleaves non-phosphorylated peptides, and was interrupted after 60 minutes with 5 μl/sample of Stop Reagent. Measurement of the Coumarin (Ex. 400 nm, Em. 460 nm) and Fluorescein (Ex. 400 nm, Em. 535 nm) emission signals were performed by a fluorescence plate reader (Envision, PerkinElmer).
Results are expressed as percentage of inhibition and the IC50 values were calculated by non-linear curve fitting using GraphPad™ Prism software.

T1 sequence (P06241 whole entry): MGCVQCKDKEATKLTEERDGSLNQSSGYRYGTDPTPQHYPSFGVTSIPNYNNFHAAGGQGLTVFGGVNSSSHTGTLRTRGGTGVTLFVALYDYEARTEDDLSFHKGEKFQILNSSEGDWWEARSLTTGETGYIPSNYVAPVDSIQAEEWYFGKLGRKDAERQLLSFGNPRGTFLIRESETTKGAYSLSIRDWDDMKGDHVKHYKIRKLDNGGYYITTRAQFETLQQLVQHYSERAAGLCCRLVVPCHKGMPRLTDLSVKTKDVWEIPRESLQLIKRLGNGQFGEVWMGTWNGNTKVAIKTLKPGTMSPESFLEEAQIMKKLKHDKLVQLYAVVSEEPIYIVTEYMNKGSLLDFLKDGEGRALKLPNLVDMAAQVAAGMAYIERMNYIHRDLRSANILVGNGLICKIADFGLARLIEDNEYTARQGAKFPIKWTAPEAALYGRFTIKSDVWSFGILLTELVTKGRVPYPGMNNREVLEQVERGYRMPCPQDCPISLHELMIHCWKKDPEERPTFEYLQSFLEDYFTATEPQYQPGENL

Row | FYN kinase inhibition, result in words | SMILES
1 | more active | Cc1cccc(F)c1Nc1ccc2c(NC(=O)c3ccc(C4CCN(C)CC4)cc3)n[nH]c2c1 [Compound 11, N-(6-((2-fluoro-6-methylphenyl)amino)-1H-indazol-3-yl)-4-(1-methylpiperidin-4-yl)benzamide]
2 | more active | CN1CCC(c2ccc(C(=O)Nc3n[nH]c4cc(Nc5c(F)ccc6c5OCO6)ccc34)cc2)CC1 [Compound 15, N-(6-((5-fluorobenzo[d][1,3]dioxol-4-yl)amino)-1H-indazol-3-yl)-4-(1-methylpiperidin-4-yl)benzamide]

Same assay, conditions: near-Km ATP, 60 minutes at 25° C.

Row | IC50 [nM] | SMILES
3 | 388 | CN1CCC(c2ccc(C(=O)Nc3n[nH]c4cc(Nc5ccc(F)cc5Cl)ccc34)cc2)CC1 [Compound 9, N-(6-((2-chloro-4-fluorophenyl)amino)-1H-indazol-3-yl)-4-(1-methylpiperidin-4-yl)benzamide]
4 | 650 | CN1CCC(c2ccc(C(=O)Nc3n[nH]c4cc(Nc5ccccc5C(F)(F)F)ccc34)cc2)CC1 [Compound 10, 4-(1-methylpiperidin-4-yl)-N-(6-((2-(trifluoromethyl)phenyl)amino)-1H-indazol-3-yl)benzamide]
5 | 220 | CN1CCC(c2ccc(C(=O)Nc3n[nH]c4cc(Nc5ccc(Cl)cc5F)ccc34)cc2)CC1 [Compound 12, N-(6-((4-chloro-2-fluorophenyl)amino)-1H-indazol-3-yl)-4-(1-methylpiperidin-4-yl)benzamide]
6 | 207 | Cc1cccc(Cl)c1Nc1ccc2c(NC(=O)c3ccc(C4CCN(C)CC4)cc3)n[nH]c2c1 [Compound 13, N-(6-((2-choro-6-methylphenyl)amino)-1H-indazol-3-yl)-4-(1-methylpiperidin-4-yl)benzamide]
7 | 19 | CN1CCC(c2ccc(C(=O)Nc3n[nH]c4cc(Nc5c(F)ccc6c5OCO6)ccc34)cc2)CC1 [Compound 15, N-(6-((5-fluorobenzo[d][1,3]dioxol-4-yl)amino)-1H-indazol-3-yl)-4-(1-methylpiperidin-4-yl)benzamide]
8 | 97 | CN1CCC(c2ccc(C(=O)Nc3n[nH]c4cc(Nc5ccc(F)cc5F)ccc34)cc2)CC1 [Compound 16, N-(6-((2,4-difluorophenyl)amino)-1H-indazol-3-yl)-4-(1-methylpiperidin-4-yl)benzamide]
9 | 105 | Cc1ccc(Nc2ccc3c(NC(=O)c4ccc(C5CCN(C)CC5)cc4)n[nH]c3c2)cc1 [Compound 18, 4-(1-methylpiperidin-4-yl)-N-(6-(p-tolyamino)-1H-indazol-3-yl)benzamide]
10 | 258 | CN1CCC(c2ccc(C(=O)Nc3n[nH]c4cc(Nc5cccc(F)c5)ccc34)cc2)CC1 [Compound 19, N-(6-((3-fluorophenyl)amino)-1H-indazol-3-yl)-4-(1-methylpiperidin-4-yl)benzamide]
11 | 442 | Cc1cccc(F)c1Nc1ccc2c(NC(=O)c3ccc(C4CCN(C)CC4)cc3)n[nH]c2n1 [Compound 21, N-(6-((2-fluoro-6-methylphenyl)amino)-1H-pyrazolo[3,4-b]pyridin-3-yl)-4-(1-methylpiperidin-4-yl)benzamide]
12 | 209 | CC(C)N1CCC(c2ccc(C(=O)Nc3n[nH]c4nc(Nc5ccccc5F)ccc34)cc2)CC1 [Compound 24, N-(6-((2-fluorophenyl)amino)-1H-pyrazolo[3,4-b]pyridin-3-yl)-4-(1-isopropylpiperidin-4-yl)benzamide]
13 | 260 | CN1CCC(c2ccc(C(=O)Nc3n[nH]c4nc(Nc5ccccc5Cl)ccc34)cc2)CC1 [Compound 26, N-(6-((2-chlorophenyl)amino)-1H-pyrazolo[3,4-b]pyridin-3-yl)-4-(1-methylpiperidin-4-yl)benzamide]
14 | 538 | COc1ccccc1Nc1ccc2c(NC(=O)c3ccc(C4CCN(C)CC4)cc3)n[nH]c2n1 [Compound 27, N-(6-((2-methoxyphenyl)amino)-1H-pyrazolo[3,4-b]pyridin-3-yl)-4-(1-methylpiperidin-4-yl)benzamide]
15 | 370 | O=C(Nc1n[nH]c2cc(Nc3ccccc3F)ccc12)c1ccc(N2CCOCC2)cc1 [Compound 36, N-(6((2-fluorophenyl)amino)-1H-indazol-3-yl)-4-morpholinobenzamide]
16 | 283 | CN1CCCC(Oc2ccc(C(=O)Nc3n[nH]c4cc(Nc5ccccc5F)ccc34)cc2)C1 (stereo not drawn) [Compound 38, N-(6((2-fluorophenyl)amino)-1H-indazol-3-yl)-4((1-methylpiperidin-3-yl)oxy)benzamide]

The remaining lines, values behind:

Row | SMILES | IC50 [nM]
17 | CN1CC[C@@H](c2ccc(C(=O)Nc3n[nH]c4cc(Nc5ccccc5F)ccc34)cc2)[C@@H](F)C1 (single isomer, unassigned) [Compound 3] | 307
18 | CN1CC[C@@H](c2ccc(C(=O)Nc3n[nH]c4cc(Nc5ccccc5F)ccc34)cc2)[C@@H](F)C1 (single isomer, unassigned) [Compound 4] | 203
19 | CN1CCCC(Oc2ccc(C(=O)Nc3n[nH]c4cc(Nc5ccccc5F)ccc34)cc2)C1 (single isomer, unassigned) [Compound 40] | 548
20 | CN1CCCC(Oc2ccc(C(=O)Nc3n[nH]c4cc(Nc5ccccc5F)ccc34)cc2)C1 (single isomer, unassigned) [Compound 41] | 374
21 | CCc1cccc(F)c1Nc1ccc2c(NC(=O)c3ccc(C4CCN(C)CC4)cc3)n[nH]c2c1 [Compound 2, N-(6-((2-ethyl-6-fluorophenyl)amino)-1H-indazol-3-yl)-4-(1-methylpiperidin-4-yl)benzamide] | 315
22 | O=C(Nc1n[nH]c2cc(Nc3ccccc3F)ccc12)c1ccc(C2CCN(C3COC3)CC2)cc1 [Compound 7, N-(6-((2-fluorophenyl)amino)-1H-indazol-3-yl)-4-(1-(oxetan-3-yl)piperidin-4-yl)benzamide] | 468
23 | Cc1cccc(F)c1Nc1ccc2c(NC(=O)c3ccc(C4CCN(C)CC4)cc3)n[nH]c2c1 [Compound 11, N-(6-((2-fluoro-6-methylphenyl)amino)-1H-indazol-3-yl)-4-(1-methylpiperidin-4-yl)benzamide] | 47
24 | CN1CCC(c2ccc(C(=O)Nc3n[nH]c4nc(Nc5ccc(F)cc5F)ccc34)cc2)CC1 [Compound 22, N-(6-((2,4-difluorophenyl)amino)-1H-pyrazolo[3,4-b]pyridin-3-yl)-4-(1-methylpiperidin-4-yl)benzamide] | 283
25 | COc1ccc(Nc2ccc3c(NC(=O)c4ccc(C5CCN(C)CC5)cc4)n[nH]c3n2)cc1 [Compound 31, N-(6-((4-methoxyphenyl)amino)-1H-pyrazolo[3,4-b]pyridin-3-yl)-4-(1-methylpiperidin-4-yl)benzamide] | 589
26 | CN1CCN(c2ccc(C(=O)Nc3n[nH]c4cc(Nc5ccccc5F)ccc34)cc2)CC1 [Compound 34, N-(6-((2-fluorophenyl)amino)-1H-indazol-3-yl)-4-(4-methylpiperazin-1-yl)benzamide] | 147
27 | CN1CCC(Oc2ccc(C(=O)Nc3n[nH]c4cc(Nc5ccccc5F)ccc34)cc2)CC1 [Compound 35, N-(6((2-fluorophenyl)amino)-1H-indazol-3-yl)-4((1-methylpiperidin-4-yl)oxy)benzamide] | 145
28 | CN1CCC(c2ccc(C(=O)Nc3n[nH]c4cc(Nc5ccccc5F)ccc34)cc2OCC2COC2)CC1 [Compound 42, N-(6-((2-fluorophenyl)amino)-1H-indazol-3-yl)-4-(1-methylpiperidin-4-yl)-3-(oxetan-3-ylmethoxy)benzamide] | 204
29 | CN1CCC(c2ccc(C(=O)Nc3n[nH]c4nc(Nc5c(F)ccc6c5OCO6)ccc34)cc2)CC1 [Compound 49, N-(6((5-fluorobenzo[d][1,3]dioxol-4-yl)amino)-1H-pyrazolo[3,4-b]pyridin-3-yl)-4-(1-methylpiperidin-4-yl)benzamide] | 831
30 | CN1CCC(c2ccc(C(=O)Nc3n[nH]c4cc(Nc5ccccc5F)ccc34)c(NC3CCOCC3)c2)CC1 [Compound 53, N-(6-((2-fluorophenyl)amino)-1H-indazol-3-yl)-4-(1-methylpiperidin-4-yl)-2-((tetrahydro-2H-pyran-4-yl)amino)benzamide] | 201

Reference: patent publication US20220041559A1, “BENZO-AND PYRIDO-PYRAZOLES AS PROTEIN KINASE INHIBITORS” (ROTTAPHARM BIOTECH S.R.L., priority 2019, published 2022)
